Where no end group is shown, it is not given here.
Tested on: drug-resistant Mycobacterium tuberculosis
Conditions: 5 micrograms per ml

FFVAP [Phe-Phe-Val-Ala-Pro]
% inhibition: 0.0%
